# Results: patent publication US20250281480A1, “PHARMACEUTICAL DRY POWDER INHALATION FORMULATION” (Bayer Aktiengesellschaft, priority 2021, published 2025)
# “And” between values parts separate entries of the source, which are not always exact repeats. Identical values can stand only once.
# Assays:
# [1] = test system: anesthetized thromboxane A2 challenged PAH-minipig; experiment: Haemodynamics in the anesthetized thromboxane challenged minipig (PAH minipig), inhaled nebulized solution: lung selectivity and duration of action; format: in vivo, Göttingen Minipigs
# Description: (§1) Healthy Göttingen Minipigs® Ellegaard (Ellegaard, Denmark) of both sexes and having a weight of 2-6 kg were used. The animals were sedated by i.m. administration of about 25 mg/kg ketamine and about 10 mg/kg azaperone. Anaesthesia was initiated by i.v. administration of about 2 mg/kg ketamine and about 0.3 mg/kg midazolam. Maintenance of anaesthesia was by i.v. administration of about 7.5-30 mg/kg/h ketamine and about 1-4 mg/kg/h midazolam (rate of infusion 1-4 ml/kg/h) and about 150 μg/kg/h pancuronium bromide (for example Pancuronium-Actavis). After intubation, the animals were ventilated by the ventilator at a constant respiratory volume (10-12 ml/kg, 35 breaths/min; Avea®, Viasys Healthcare, USA, or Engström Carestation, GE Healthcare, Freiburg, Germany) such that an end-tidal CO2 concentration of about 5% was achieved. Ventilation was performed with room air, enriched with about 40% oxygen (normoxia). For the measurement of the haemodynamic parameters such as pulmonary arterial pressure (PAP), blood pressure (BP) and heart rate (HR), catheters were inserted into the carotid artery to measure the blood pressure, and a Swan-Ganz® catheter was introduced in a flow-directed manner via the jugular vein into the pulmonary artery. The haemodynamic signals were recorded and evaluated by means of pressure transducers (Combitransducer, B. Braun, Melsungen, Germany)/amplifiers and Ponemah® as data acquisition software.
# After the instruments have been placed into the animals, continuous infusion of a thromboxane A2 analog was initiated to increase the pulmonary arterial pressure. About 0.3-0.75 μg/kg/min of 9,11-didesoxy-9α,11α-epoxymethanoprostaglandine F2α (U-44069; Sigma, cat. no. D0400, or Cayman Chemical Company, cat. no. 16440), dissolved in physiological saline, were infused to achieve an increase of the mean pulmonary arterial pressure to values of over 25 mmHg. 30 minutes after the start of the infusion, a plateau was reached, and the experiment was started.
# The test substances were administered as i.v. infusion or by inhalation. For the preparation of the solution for inhalation, the following procedure was adopted: For an animal having a weight of 4 kg, to prepare the stock solution (300 μg/kg), 1.2 mg of the test compound were weighed out and dissolved in a total volume of 3 ml (1% DMSO, 99% 0.2% strength citric acid solution, 1 n aqueous sodium hydroxide solution to adjust the pH to 8). The solution was then diluted to the concentration employed using 0.2% strength citric acid which had been adjusted to pH 8 beforehand with aqueous sodium hydroxide solution. In each test, 3 ml of the solution of test compound per 4 kg animal were nebulized in the inhalation arm of the respiratory circuit using the Aeroneb® Pro nebulizer system. The mean nebulization time was about 7 min from the start of the nebulization.
# With respect to a prediction of the duration of action for human studies comparative example 11 was compared in the PAH minipig model after inhaled application to Ventavis® (=Iloprost, 10 μg/kg nominal dose), which we used as a clinical reference. […] Therefore, the duration of action is more than 6 times longer compared to Ventavis in this preclinical animal model.
# [2] = test system: anesthetized PAH minipigs; experiment: PAH minipig, intratracheal application of dry powder formulations and of different hydrates (PAP, BP); format: in vivo, Göttingen Minipigs; details: for efficacy with regard to PAP reduction and systemic BP reduction: micronized hydrates; for PAP(mean) / BP (mean): per animal; for % changes vs. baseline on PAP: intratracheal application
# Description: as §1
# About 0.3-0.75 μg/kg/min of 9,11-didesoxy-9α,11α-epoxymethanoprostaglandine F2α (U-44069; Sigma, cat. no. D0400, or Cayman Chemical Company, cat. no. 16440), dissolved in physiological saline, were infused to achieve an increase of the mean pulmonary arterial pressure to values of over 25 mmHg.
# After characterization of the effects of comparative example 11 after nebulization of compound solutions, in a further step the effects of crystalline forms of comparative example 11, e.g. sesquihydrate, e.g. example 6e on PAP and BP after inhaled application of different dry powder lactose formulations (table 52) were studied in anesthetized PAH minipigs.
# As reference pure Lactose vehicle was applied in the beginning of each experiment.
# [3] = % vs. prevalues, 375 μg/kg i.t., time 60, each animal
# [4] = % vs. prevalues, 375 μg/kg i.t., time 70, each animal
# [5] = 375 μg/kg i.t., time 0, Sesquihydrate
# [6] = 375 μg/kg i.t., time −10, Sesquihydrate
structure (smiles),measurement,setting,value
"O=C(O)CCCCN(CCc1cc(F)ccc1OCc1ccc(-c2nc3cc(Cl)ccc3o2)cc1)C1CCCc2nc(C(=O)O)ccc21 (single isomer, unassigned) [compound 3, (5)-{(4-carboxybutyl)[2-(2-{[4-(5-chloro-1,3-benzoxazol-2-yl)benzyl]oxy}-5-fluorophenyl)ethyl]amino}-5,6,7,8-tetrahydroquinoline-2-carboxylic Acid, reference compound]",effect on PAP completely resolved after,[1]; inhaled application,120 min
same,time of maximal effect on PAP after inhaled application,[1]; nebulized solution,30 min
"O.O=C(O)c1ccc(CCN(CCc2ccccc2OCc2ccc(-c3ccc(C(F)(F)F)cc3)cc2Cl)[C@H]2CCCc3nc(C(=O)O)ccc32)cc1.O=C(O)c1ccc(CCN(CCc2ccccc2OCc2ccc(-c3ccc(C(F)(F)F)cc3)cc2Cl)[C@H]2CCCc3nc(C(=O)O)ccc32)cc1 [Example 6a, (5S)—{[2-(4-Carboxyphenyl)ethyl][2-(2-{[3-chloro-4′-(trifluoromethyl)biphenyl-4-yl]methoxy}phenyl)-ethyl]amino}-5,6,7,8-tetrahydroquinoline-2-carboxylic Acid Semihydrate]",efficacy with regard to PAP reduction and systemic BP reduction,[2]; 375 μg/kg i.t.,comparable efficacy
same,PAP(mean),"[2]; 375 μg/kg i.t., time 170",24.0 mmHg and 32.4 mmHg and 29.9 mmHg
same,BP (mean),"[2]; 375 μg/kg i.t., time 180",94 mmHg
same,PAP(mean),"[2]; 375 μg/kg i.t., time 180",23.7 mmHg
same,BP (mean),"[2]; 375 μg/kg i.t., time 190",94 mmHg and 93 mmHg
same,PAP(mean),"[2]; 375 μg/kg i.t., time 190",24.4 mmHg and 32.4 mmHg and 29.2 mmHg
same,PAP(mean),"[2]; 375 μg/kg i.t., time 200",24.8 mmHg and 32.4 mmHg and 29.4 mmHg
same,BP (mean),"[2]; 375 μg/kg i.t., time 210",91 mmHg
same,PAP(mean),"[2]; 375 μg/kg i.t., time 210",24.8 mmHg and 29.2 mmHg
same,PAP(mean),"[2]; 375 μg/kg i.t., time 220",24.7 mmHg and 29.1 mmHg
same,PAP(mean),"[2]; 375 μg/kg i.t., time 230",24.0 mmHg
same,BP (mean),"[2]; 375 μg/kg i.t., time 240",77 mmHg
same,PAP(mean),"[2]; 375 μg/kg i.t., time 240",24.1 mmHg and 28.1 mmHg
same,BP (mean),"[2]; 375 μg/kg i.t., time 250",76 mmHg
same,PAP(mean),"[2]; 375 μg/kg i.t., time 250",24.2 mmHg and 28.1 mmHg
same,BP (mean),"[2]; 375 μg/kg i.t., time 260",76 mmHg
same,PAP(mean),"[2]; 375 μg/kg i.t., time 260",24.1 mmHg and 30.6 mmHg and 28.1 mmHg
same,BP (mean),"[2]; 375 μg/kg i.t., time 270",76 mmHg
same,PAP(mean),"[2]; 375 μg/kg i.t., time 270",24.4 mmHg and 30.6 mmHg and 27.8 mmHg
same,BP (mean),"[2]; 375 μg/kg i.t., time 280",75 mmHg
same,PAP(mean),"[2]; 375 μg/kg i.t., time 280",24.3 mmHg and 28.0 mmHg
same,BP (mean),"[2]; 375 μg/kg i.t., time 290",75 mmHg
same,PAP(mean),"[2]; 375 μg/kg i.t., time 290",24.1 mmHg and 27.6 mmHg
same,BP (mean),"[2]; 375 μg/kg i.t., time 300",77 mmHg
same,PAP(mean),"[2]; 375 μg/kg i.t., time 300",23.7 mmHg and 30.5 mmHg and 27.7 mmHg
same,BP,[2]; [3],100.6% and 99.7% and 97.2%
same,PAP,[2]; [3],100.7% and 99.4% and 99.2%
same,BP,[2]; [4],102.6%
same,PAP,[2]; [4],94.7%
"O.O.O.O=C(O)c1ccc(CCN(CCc2ccccc2OCc2ccc(-c3ccc(C(F)(F)F)cc3)cc2Cl)[C@H]2CCCc3nc(C(=O)O)ccc32)cc1.O=C(O)c1ccc(CCN(CCc2ccccc2OCc2ccc(-c3ccc(C(F)(F)F)cc3)cc2Cl)[C@H]2CCCc3nc(C(=O)O)ccc32)cc1 [Example 6e, (5S)—{[2-(4-Carboxyphenyl)ethyl][2-(2-{[3-chloro-4′-(trifluoromethyl)biphenyl-4-yl]methoxy}phenyl)-ethyl]amino}-5,6,7,8-tetrahydroquinoline-2-carboxylic Acid Sesquihydrate]",efficacy with regard to PAP reduction and systemic BP reduction,[2]; 375 μg/kg i.t.,comparable efficacy
same,BP (mean),[2]; [5],104 mmHg
same,PAP(mean),[2]; [5],41.9 mmHg
same,BP (mean),[2]; [6],107 mmHg
same,PAP(mean),[2]; [6],36.4 mmHg and 37.5 mmHg
same,% changes vs. baseline on PAP,"[2]; time 80 (baseline = 100), each animal",100.0%
same,% changes vs. baseline on PAP,"[2]; time 90, each animal, Sesquihydrate",98.9% and 103.6% and 99.8%
same,% changes vs. baseline on PAP,"[2]; time 100, each animal, Sesquihydrate",99.5% and 101.4% and 97.3%
same,% changes vs. baseline on PAP,"[2]; time 110, each animal, Sesquihydrate",89.3% and 98.7% and 86.8%
same,% changes vs. baseline on PAP,"[2]; time 120, each animal, Sesquihydrate",84.0% and 95.6% and 75.7%
same,% changes vs. baseline on PAP,"[2]; time 130, each animal, Sesquihydrate",78.9% and 93.7% and 70.2%
same,% changes vs. baseline on PAP,"[2]; time 140, each animal, Sesquihydrate",75.2% and 91.8% and 67.5%
same,% changes vs. baseline on PAP,"[2]; time 150, each animal, Sesquihydrate",74.0% and 76.0% and 65.4%
same,% changes vs. baseline on PAP,"[2]; time 160, each animal, Sesquihydrate",71.0% and 79.5% and 65.9%
same,% changes vs. baseline on PAP,"[2]; time 170, each animal, Sesquihydrate",68.5% and 74.3% and 61.5%
same,% changes vs. baseline on PAP,"[2]; time 180, each animal, Sesquihydrate",63.2% and 80.8% and 62.0%
same,% changes vs. baseline on PAP,"[2]; time 190, each animal, Sesquihydrate",61.5% and 80.8% and 58.6%
same,% changes vs. baseline on PAP,"[2]; time 200, each animal, Sesquihydrate",62.3% and 80.3% and 60.2%
same,% changes vs. baseline on PAP,"[2]; time 210, each animal, Sesquihydrate",61.0% and 80.7% and 59.4%
same,% changes vs. baseline on PAP,"[2]; time 220, each animal, Sesquihydrate",59.5% and 86.3% and 57.8%
same,% changes vs. baseline on PAP,"[2]; time 230, each animal, Sesquihydrate",58.6% and 82.6% and 57.8%
same,% changes vs. baseline on PAP,"[2]; time 240, each animal, Sesquihydrate",59.3% and 81.5% and 57.6%
same,% changes vs. baseline on PAP,"[2]; time 250, each animal, Sesquihydrate",59.3% and 82.2% and 56.1%
same,% changes vs. baseline on PAP,"[2]; time 260, each animal, Sesquihydrate",58.8% and 82.7% and 57.6%
same,% changes vs. baseline on PAP,"[2]; time 270, each animal, Sesquihydrate",59.9% and 78.3% and 55.4%
same,% changes vs. baseline on PAP,"[2]; time 280, each animal, Sesquihydrate",58.4% and 78.3% and 55.9%
same,% changes vs. baseline on PAP,"[2]; time 290, each animal, Sesquihydrate",57.4% and 79.6% and 53.9%
same,% changes vs. baseline on PAP,"[2]; time 300, each animal, Sesquihydrate",60.1% and 78.7% and 54.5%
same,% changes vs. baseline on PAP,"[2]; time 310, each animal, Sesquihydrate",58.4% and 77.6% and 53.7%
same,% changes vs. baseline on PAP,"[2]; time 320, each animal, Sesquihydrate",61.8% and 76.3% and 55.1%
same,% changes vs. baseline on PAP,"[2]; time 330, each animal, Sesquihydrate",61.3% and 74.8% and 53.0%
same,PAP,"[2]; time 20 min, lactose vehicle first, test powder 1.5 mg/4 kg i.t. @90 min, per animal (n = 3), Sesquihydrate",42.0 mmHg and 37.5 mmHg
same,BP,"[2]; time 30 min, lactose vehicle first, test powder 1.5 mg/4 kg i.t. @90 min, per animal (n = 3)",104 mmHg
same,PAP,"[2]; time 30 min, lactose vehicle first, test powder 1.5 mg/4 kg i.t. @90 min, per animal (n = 3), Sesquihydrate",41.9 mmHg and 37.1 mmHg and 37.5 mmHg
same,PAP,"[2]; time 40 min, lactose vehicle first, test powder 1.5 mg/4 kg i.t. @90 min, per animal (n = 3), Sesquihydrate",42.0 mmHg and 37.3 mmHg and 38.6 mmHg
same,PAP,"[2]; time 50 min, lactose vehicle first, test powder 1.5 mg/4 kg i.t. @90 min, per animal (n = 3), Sesquihydrate",41.4 mmHg and 37.4 mmHg and 39.8 mmHg
same,PAP,"[2]; time 60 min, lactose vehicle first, test powder 1.5 mg/4 kg i.t. @90 min, per animal (n = 3), Sesquihydrate",41.4 mmHg and 36.8 mmHg and 41.2 mmHg
same,PAP,"[2]; time 70 min, lactose vehicle first, test powder 1.5 mg/4 kg i.t. @90 min, per animal (n = 3), Sesquihydrate",41.0 mmHg and 37.4 mmHg and 41.3 mmHg
same,PAP,"[2]; time 80 min, lactose vehicle first, test powder 1.5 mg/4 kg i.t. @90 min, per animal (n = 3), Sesquihydrate",40.9 mmHg and 38.1 mmHg and 40.8 mmHg
same,BP,"[2]; time 90 min, lactose vehicle first, test powder 1.5 mg/4 kg i.t. @90 min, per animal (n = 3)",102 mmHg
same,PAP,"[2]; time 90 min, lactose vehicle first, test powder 1.5 mg/4 kg i.t. @90 min, per animal (n = 3), Sesquihydrate",40.4 mmHg and 39.5 mmHg
